Data published in patent publication US20260374809A1, “COMPOUNDS USEFUL FOR THE TREATMENT AND/OR CARE OF THE SKIN, HAIR, NAILS AND/OR MUCOUS MEMBRANES” (Lubrizol Advanced Materials, Inc., priority 2022, published 2026).
Where a SMILES comes first, the peptide text is derived from it. [ ]: non-standard residue; d: D form. The star is where a group is joined. Palmitoyl = CCCCCCCCCCCCCCCC(=O)*

What was measured:
[1] = system: Musclebind Like Protein 1 (MBNL1); assay: MBNL1 protein expression in human skeletal muscle cells (hSKMC), HTRF; type: cell-based; conditions: 0.5 mg/ml, 48 hours, relative to basal control
Experimental: Musclebind Like Protein 1 (MBNL1) in Human Skeletal Muscle Cells (hSKMC)
An increase of MBNL-1 in muscle cells helps maintaining the tone of facial skin muscles. Thus, compounds able to enhance MBNL-1 can be used as a good approach for cosmetic treatment of sagging facial appearance.
Human skeletal muscle cells (hSKMC) were cultured at 100,000 cells in T25 flasks with growth medium. After 4 days, cells reached around 80% of confluency and were seeded at 150,000 cells per well in 12-well plates in growth medium. Cells were incubated for 72 hours and then they were changed to differentiation medium and incubated during 48 hours. At the end of this period, cells were treated with defined peptides (0.5 mg/ml) and with medium alone for control conditions during 48 hours in differentiation medium. Cells were also treated with 2 mM of ketoprofen as a positive control.
After the incubation period, cells were lysed and frozen at −80 °C. For total protein quantification protein extract was measured by Bicinchoninic Acid (BCA) method. MBNL1 protein detection was performed by Homogeneous Time Resolved Fluorescence (HTRF) technology. Normalization of MBNL1 levels were performed by total protein quantification for each condition. Results are expressed as a relative MBNL1 protein level respect to control conditions. At least 3 replicates were carried out per condition.

[2] = system: Human dermal fibroblast (HDF); assay: Collagen contraction assay with human dermal fibroblasts in collagen gel; type: cell-based; conditions: 0.01 mg/ml; basal control = 100, positive control with MES = 159.7
Source text: It is known that a remarkable change in the mechanical properties of the skin with aging is due to reduced contractile capacity as well as reduced migration activity of fibroblasts. Healthy fibroblasts induce contraction of the collagen network through physical interactions with collagen fibers. The collagen network is essential for maintaining the firmness of the skin. The collagen contraction assay is a well-known experimental approach to measuring the cell-induced contraction of the extracellular matrix. In this assay, the capacity of fibroblasts, embedded in a collagen-based gel, to reduce the gel diameter is evaluated.
By improving the contractile forces, the mechanical tension can be improved, which can be associated to “lifting” effect at the scale of fibroblasts.
The microcurrent system was built by coupling gold electrodes (in order to avoid medium oxidation leading to cell death when current goes through) to opposite sides of 60 mm Petri dishes (separated by 4 cm). When a voltage is applied, an electric field generates between opposite positive and negative poles and current passes through the culture. During the stimulation time (2 hours), each of the 60 mm Petri dishes is connected to a voltage source that allows regulating the amount of current that passes through each of them. For these experiments, a […] current (which corresponds to approx. 67 mV/mm) was used.
Human dermal fibroblast (HDF) cell culture and expansion: Cells were thawed in T75 flasks and the growth medium was changed every 2 days of cell culture. After 7 days, cells were expanded to obtain a total amount of 7×10^6 cells to be used in the experiments.
Once finished the expansion, cultures are trypsinized and seeded at 3×10^5 cells/60 mm Petri up to a total of 10 dishes per replicate. These ten dishes correspond to one experiment (Control/-MES vs+MES) at a specific concentration. Peptide treatment was performed at 0.01 mg/ml.
After an overnight (O/N) incubation to allow cell attachment, each Petri dish is treated at the corresponding concentration with 4 ml of specific medium for a total of 24 hours in both conditions (without MES and with MES). Peptide treatment on the dishes that are not stimulated with microcurrent is initiated 2 hours in advance, and their passage into 3D cultures occurs at the same time as the microcurrent stimulation of the other dishes. […]
Each 3D culture is prepared by mixing collagen solution with the culture medium corresponding to each of the conditions (without peptide or with peptide). […] Images of collagen gel diameter are taken of each well at 24 hours post detachment and analyzed by ImageJ. […]
[formula] • An initial area is stablished. […] Area t=0 gel […]1.86 cm^2 (Area of a well in a 24-well plate) • Quantification of Area at t=x; Ax. […]

[3] = system: eyebrow; assay: In vivo eyebrow lifting effect in Caucasian volunteers (FrameScan image analysis); set-up: species or system human; conditions: 28 days; result in words
Experimental: The study was carried out for 28 days. Forty-six (46) volunteers aged between 40 and 65 years old were included in the study and were divided into two groups. The first group included 36 volunteers (31 women and 5 men) which applied the composition described in Example 5 on half face and placebo (same composition without peptide) on the other half, twice a day for 28 days. The second group of 10 volunteers (9 women and 1 man) used a microcurrent device (Nuface®) with an activator gel without active ingredients once a day. Volunteers using the microcurrent device were trained on how to apply the activator gel and how to use the device to standardize its application among them. […]
Volunteers' facial images were acquired at initial time and after 28 days of product application. The efficacy of the product was assessed by the measurement of a diagonal distance between eyelashes and eyebrows obtained from image analysis with FrameScan® software. The diagonal distance was calculated by drawing a horizontal line between a point at the start of the eyelashes and a point at the end of eyelashes (the eyelashes' line). […]
A study was carried out for 28 days for determining the lifting effect of Ac-Asp-Val-Tyr-Lys-NH2 (not according to the invention). […] The eyebrow lifting effect was determined as disclosed in Example 12.

Compound	% MBNL1 vs Basal control [1] [%]	Collagen contraction, MEAN (comparative peptides) [2]	Lifting effect [3]
CCCCCCCCCCCCCCCC(=O)N[C@@H](CC(C)C)C(=O)N1CCC[C@H]1C(=O)N[C@H](C(=O)N[C@H](C(=O)O)[C@@H](C)O)C(C)C [PEP-3, Palm-Leu-Pro-Val-Thr-OH] (Palmitoyl-LPVT-OH)	160.4	–	–
CC(C)C[C@H](NC(=O)[C@@H]1CCCN1C(=O)[C@@H](N)CC(C)C)C(=O)N[C@H](C(=O)O)[C@@H](C)O [PEP-10, H-Leu-Pro-Leu-Thr-OH] (H-LPLT-OH)	222.0	–	–
CC(=O)N[C@@H](CC(=O)O)C(=O)N[C@H](C(=O)N[C@@H](Cc1ccc(O)cc1)C(=O)N[C@@H](CCCCN)C(N)=O)C(C)C [Ac-Asp-Val-Tyr-Lys-NH2] (Ac-DVYK-NH2)	–	91.6	did not have a lifting effect
CSCC[C@H](NC(=O)[C@@H](CCC(N)=O)NC(=O)[C@H](CCCNC(=N)N)NC(=O)[C@H](CCCNC(=N)N)NC(C)=O)C(=O)N[C@@H](CCC(=O)O)C(=O)N[C@@H](CCC(=O)O)C(N)=O [Ac-Arg-Arg-D-Gln-Met-Glu-Glu-NH2] (Ac-RR[dQ]MEE-NH2)	–	82.5	–
H-ALPVT-OH [PEP-11, H-Ala-Leu-Pro-Val-Thr-OH]	259.0	–	–
CC(C)[C@H](N)C(=O)N1CCC[C@H]1C(=O)N[C@H](C(=O)N[C@H](C(=O)O)[C@@H](C)O)C(C)C [PEP-8, H-Val-Pro-Val-Thr-OH] (H-VPVT-OH)	131.3	–	–
H-ALKPNT-NH2 [H-Ala-Leu-Lys-Pro-Asn-Thr-NH2]	–	101.4	–
CC(C)C[C@H](N)C(=O)N[C@@H](C)C(=O)N[C@H](C(=O)N[C@H](C(=O)O)[C@@H](C)O)C(C)C [PEP-6, H-Leu-Ala-Val-Thr-OH] (H-LAVT-OH)	157.0	–	–
CC(=O)N[C@@H](CC(C)C)C(=O)N1CCC[C@H]1C(=O)N[C@H](C(=O)N[C@H](C(N)=O)[C@@H](C)O)C(C)C [PEP-5, Ac-Leu-Pro-Val-Thr-NH2] (Ac-LPVT-NH2)	213.7	–	–
CC(C)C[C@H](N)C(=O)NCC(=O)N[C@H](C(=O)N[C@H](C(=O)O)[C@@H](C)O)C(C)C [PEP-9, H-Leu-Gly-Val-Thr-OH] (H-LGVT-OH)	122.4	–	–
CC[C@H](C)[C@H](N)C(=O)N1CCC[C@H]1C(=O)N[C@H](C(=O)N[C@H](C(=O)O)[C@@H](C)O)[C@@H](C)CC [PEP-13, H-Ile-Pro-Ile-Thr-OH] (H-IPIT-OH)	133.3	–	–
CC[C@H](C)[C@H](NC(=O)[C@@H]1CCCN1C(=O)[C@@H](N)CC(C)C)C(=O)N[C@H](C(=O)O)[C@@H](C)O [PEP-7, H-Leu-Pro-Ile-Thr-OH] (H-LPIT-OH)	156.3	–	–
CC(C)C[C@H](N)C(=O)N1CCC[C@H]1C(=O)N[C@H](C(=O)O)C(C)C [PEP-12, H-Leu-Pro-Val-OH] (H-Leu-Pro-Val-OH)	177.8	–	–
CC(C)C[C@H](N)C(=O)N1CCC[C@H]1C(=O)N[C@H](C(=O)N[C@H](C(N)=O)[C@@H](C)O)C(C)C [PEP-2, H-Leu-Pro-Val-Thr-NH2] (H-LPVT-NH2)	183.2	–	–
CC(=O)N[C@@H](CC(C)C)C(=O)N1CCC[C@H]1C(=O)N[C@H](C(=O)N[C@H](C(=O)O)[C@@H](C)O)C(C)C [PEP-4, Ac-Leu-Pro-Val-Thr-OH] (Ac-LPVT-OH)	131.3	–	–
